One data set has as its system Rhizoctonia solani. Description: Example W: in vivo test on Rhizoctonia solani (sheath blight in rice/protective). Conditions: 96 h, rice, protective, 250 ppm active substance, assessed 4 days after inoculation, read-out: % Activity level. The gist of the method: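 Young rice plants sprayed protectively with compound in acetone/alkylaryl polyglycol ether emulsion diluted in water at stated dosage. Inoculated with R. solani hyphae one day later; disease assessed 4 days post-inoculation.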

Another data set relates to Peronospora parasitica. The data set is described as follows: Example A: in vivo test on Peronospora parasitica (downy mildew on white cabbage). Conditions: Hyaloperonospora parasitica, 120 h, cabbage plants sprayed 24 hours before inoculation, scored after 5 days, read-out: % Wirkungsgrad. The gist of the method: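 Cabbage plants (Eminence) at cotyledon stage sprayed with aqueous compound suspension (acetone/Tween/DMSO, diluted with water), then inoculated 24 h later with P. parasitica spores at 50,000 spores/ml. After 5 days in moist atmosphere at ca. 20 °C, disease scored against untreated sprayed controls.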

A further data set has as its system Cochliobolus miyabeanus. Description: Example X: in vivo test on Cochliobolus miyabeanus (brown spot disease, rice/protective). The settings on record: Bipolaris oryzae, 96 h, read-out: % Activity level.
In another data set the test system is Fusarium graminearum. Description: whole plant or invertebrate. Format: in vivo. Conditions: in Hordeum vulgare, 120 h, read-out: % Wirkungsgrad (activity level).
For data set [1], the system named is Fusarium nivale (var. majus). The data set is described as follows: whole plant or invertebrate. Type of data set: in vivo. Conditions: Microdochium nivale, in Triticum aestivum, 120 h, read-out: % Wirkungsgrad (activity level).
The next data set concerns Pyrenophora teres. Description: Example E: in vivo test on Pyrenophora teres (barley net blotch disease). The settings on record: Pyrenophora teres, 288 h, barley plants sprayed 24 hours before inoculation, scored after 12 days, read-out: % Wirkungsgrad. How it is done:
In Vivo Test on Pyrenophora Teres (Barley Net Blotch Disease) An aqueous suspension of the active substance was prepared by homogenization of a mixture of acetone/Tween/dimethyl sulphoxide and subsequent dilution with water to the desired concentration. Barley plants (variety: Plaisant) are sown in cultivation dishes on a peat-pozzolanic earth substrate (50/50) at 12° C. and sprayed at the first-leaf stage (10 cm size) with the aqueous suspension described above. As a control, plants are sprayed with an aqueous solution with no active substance. After 24 hours the plants are inoculated by spraying with an aqueous suspension of Pyrenophora teres spores (12,000 spores per ml). The spores are derived from a 12 day-old culture. […] After 12 days they are scored in comparison with the control plants.

A further data set is described as follows: physchem. Conditions: LogPA (logP of the stated pure compound or, in a mixture, of the main isomer, 1-substituted 3-aryl-1H-pyrazole).
The next data set relates to Botrytis cinerea. Description: Example B: in vivo test on Botrytis cinerea (grey mould on cucumbers). The settings on record: cucumber plants sprayed 24 hours before inoculation, scored after 5-7 days, read-out: % Wirkungsgrad. The essentials:
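Cucumber plants (Vert petit de Paris) sprayed at cotyledon stage Z11 with aqueous suspension of compound (acetone/Tween/DMSO), then inoculated with spores from 15-day-old culture in gelatine/fructose nutrient solution. Kept 5-7 days at 15-11° C, then scored against untreated sprayed controls.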

The test system of the next data set is Pyricularia oryzae. Description: whole plant or invertebrate. The settings on record: 120 h, read-out: % Activity level. Format: in vivo.
A further data set relates to Leptosphaeria nodorum. Description: Example Q: in vivo test on Leptosphaeria nodorum (glume blotch in wheat/protective). Conditions: Parastagonospora nodorum, 192 h, wheat, protective, assessment 8 days after inoculation, read-out: % Wirkungsgrad. The gist of the method:
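Protective test: young wheat plants sprayed with compound formulated in N,N-dimethylacetamide plus alkylaryl polyglycol ether emulsifier, diluted in water to the stated dose. After drying, plants inoculated with L. nodorum spore suspension; disease assessed 8 days post-inoculation.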

The subject of the next data set is Plasmopara viticola. The data set is described as follows: Example N: in vivo test on Plasmopara viticola (downy mildew, vine/protective). Conditions: 144 h, vine, protective, assessment 6 days after inoculation, read-out: % Wirkungsgrad. The gist of the method: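 Protective test: young vine plants were sprayed with active substance diluted in water from a solvent/alkylaryl polyglycol ether emulsifier concentrate at the stated dosage, then inoculated with P. viticola. Plants were moistened and kept 1 day in an incubation cabin, and assessed 6 days after inoculation.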

The next data set concerns Venturia inaequalis. The data set is described as follows: Example O: in vivo test on Venturia inaequalis (apple scab/protective). The settings on record: 240 h, protective, assessment 10 days after inoculation, read-out: % Wirkungsgrad. The gist of the method:
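Protective test: active substance mixed with solvent and alkylaryl polyglycol ether emulsifier, diluted with water, and sprayed on young plants at the stated dosage before Venturia inaequalis inoculation. Scab assessed 10 days after inoculation.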

The test system of the next data set is Fusarium proliferatum. Description: Example I: production of fumonisin FB1 by Fusarium proliferatum (microtitre plates). Format: cell-based. Conditions: 120 h.
A further data set concerns Aspergillus parasiticus. Description: microbe, parasite or virus in culture. Type of data set: cell-based. Conditions: 168 h.
The mark [2] stands for this setting: Fusarium proliferatum growth, OD 620, 5 days, read-out: % Inhibition des Pilzwachstums bei 50 μM.
Setting [3] is: Fusarium proliferatum, 5 days at 20° C., HPLC-MS/MS, read-out: % Inhibition der FB1 produktion bei 50 μM.
Where [4] appears, read: 50 μM, 7 days at 20° C., read-out: Inhibition der Aflatoxin produktion bei 50 μM.
The mark [5] stands for this setting: read-out: % Inhibition des Pilzwachstums bei 50 μM.

Read-outs that look alike come from different tables or passages of the source.

For `CC(C)Cn1cc(-c2ccncc2)c(-c2ccc(F)cc2)n1` [Compound 1], the pest or weed control at 250 ppm in the data set with Rhizoctonia solani worked out at 100%; in the data set on Cochliobolus miyabeanus it was 85%; in the data set on Pyricularia oryzae it was 80%. The pest or weed control at 500 ppm in the data set with Peronospora parasitica amounted to 100%; with Pyrenophora teres, 96%; in the data set with Botrytis cinerea, 100%. The pest or weed control at 1000 ppm with Fusarium graminearum came out at 100%; in data set [1] it was 92%; with Leptosphaeria nodorum it was 100%. The chromatographic logP in “physchem” turned out to be 1.63. Moreover, the pest or weed control at 100 ppm worked out at 100% with Plasmopara viticola and 99% in the data set with Venturia inaequalis.
Take `CC(C)C(=O)Nc1cc(-c2cn(C(C)C)nc2-c2ccc(F)cc2)ccn1` [Compound 84]: the pest or weed control at 250 ppm was found to be 100% in the data set on Rhizoctonia solani, 93% in the data set with Cochliobolus miyabeanus and 85% in the data set on Pyricularia oryzae. Moreover, the pest or weed control at 500 ppm in the data set on Peronospora parasitica and in the data set on Botrytis cinerea was 100% throughout. Further, the pest or weed control at 1000 ppm (with Fusarium graminearum; in data set [1]; in the data set with Leptosphaeria nodorum) was 100% throughout. The inhibition at 50 µM with Fusarium proliferatum (setting [2]) came out at 88%; in the data set on Fusarium proliferatum (setting [3]), 100%; in the data set with Aspergillus parasiticus (setting [4]) it was 100%; in the data set on Aspergillus parasiticus (setting [5]), 98%. Further, the chromatographic logP in “physchem” was determined as 2.5. Further, the pest or weed control at 100 ppm in the data set with Plasmopara viticola was 98%; in the data set with Venturia inaequalis, 100%.
As for `CCC(=O)Nc1cc(-c2cn(C(C)C)nc2-c2ccc(F)cc2)ccn1` [Compound 85], the pest or weed control at 250 ppm with Rhizoctonia solani worked out at 97%; in the data set on Cochliobolus miyabeanus it was 90%; with Pyricularia oryzae, 80%. Further, the pest or weed control at 500 ppm with Peronospora parasitica worked out at 100%; in the data set on Pyrenophora teres, 75%; with Botrytis cinerea it was 100%. For the same compound, the pest or weed control at 1000 ppm (with Fusarium graminearum; in [1]; in the data set with Leptosphaeria nodorum) was 100% each time. Besides, the inhibition at 50 µM was found to be 95% in the data set with Fusarium proliferatum (setting [2]), 100% in the data set on Fusarium proliferatum (setting [3]), 100% with Aspergillus parasiticus (setting [4]) and 98% with Aspergillus parasiticus (setting [5]). Also, the chromatographic logP in “physchem” was 2.15. For the same compound, the pest or weed control at 100 ppm amounted to 94% with Plasmopara viticola and 88% in the data set on Venturia inaequalis.
Take `CC(C)n1cc(-c2ccnc(NC(=O)C3CC3)c2)c(-c2ccc(F)cc2)n1` [Compound 86]: the pest or weed control at 250 ppm in the data set with Rhizoctonia solani stood at 100%; in the data set on Cochliobolus miyabeanus, 80%; in the data set on Pyricularia oryzae, 93%. Also, the pest or weed control at 500 ppm in the data set on Peronospora parasitica stood at 100%; in the data set on Pyrenophora teres, 81%; in the data set on Botrytis cinerea, 100%. The pest or weed control at 1000 ppm (with Fusarium graminearum; in data set [1]; in the data set on Leptosphaeria nodorum) was 100% each time. Also, the inhibition at 50 µM in the data set on Fusarium proliferatum (setting [2]) is 96%; in the data set on Fusarium proliferatum (setting [3]), 100%; with Aspergillus parasiticus (setting [4]), 100%; with Aspergillus parasiticus (setting [5]) it was 97%. In addition, the chromatographic logP in the data set “physchem” came to 2.07. For the same compound, the pest or weed control at 100 ppm worked out at 84% with Plasmopara viticola and 96% in the data set on Venturia inaequalis.
